Laboratory results taken from patent US20080220416A1, “Compositions for Inhibiting Cell Growth and Inducing Apoptosis in Cancer Cells and Methods of Use Thereof” (THE BOARD OF TRUSTEES OF THE UNIVERSITY OF ILLINOI, priority 2004, published 2008).
Peptide text beside a SMILES is read from it. * marks the point of attachment. Cbz = O=C(OCc1ccccc1)*

Tests used:
Type in all cases: cell-based, human
[1] = tested on: normal melanocytes; test: Proteasome inhibitors, apoptosis of normal melanocyte cultures (Annexin V FITC flow cytometry); settings: MC-005, MC-006, MC-008; 24 hrs; 1, 5 or 10 μM
Protocol: (§1) The proteasome inhibitors lactacystin, MG-132, and bortezomib were evaluated for the ability to induce apoptosis in malignant melanoma cell lines (n=3) including an early passage line, RJ002L. MG-132 was obtained from Calbiochem (La Jolla, Calif.) and dissolved in DMSO. Lactacystin was purchased from Sigma Chemical Co. (St. Louis, Mo.) and dissolved in PBS. Bortezomib was obtained from a pharmacy as VELCADE (bortezomib) for Injection from a single use vial for intravenous use only (Millennium Pharmaceuticals, Cambridge, Mass.). A cell line with wild-type p53 (RJ002L) and two melanoma cell lines with mutant p53 alleles (C8161 and MUM2B) were included in this study. Two additional melanoma cell lines were also used: cutaneous SK-MeI-28 cells and primary, early passage MG012 cells. In addition, five normal melanocyte culture cell lines (MC-005, MC-006, MC-008, MC-009 and MC-011) were examined. Prior to testing, the melanoma cell lines were maintained in RPMI supplemented with 10% FBS. Normal human melanocytes were isolated from neonatal foreskins as previously described (Qin J et al., 2004, Mol Cancer Ther 3:895-902, 2004) and cultured with medium 154 containing growth supplements (Cascade Biologics, Portland, Oreg.).
To assess the effect of proteasome inhibitors on the cell lines, the cells were grown in suitable culture media as described above. […]
Following treatment with the proteasome inhibitors, the melanoma and melanocyte cell cultures were assayed for apoptotic cells using the APO TARGET Annexin V FITC staining kit (Biosource, Camarillo, Calif.) according to the manufacturer's instructions followed by flow cytometric analysis using FACScaliber (Becton Dickinson, Palo Alto, Calif.) as described in Qin, J. et al., 2001, Nat Med 7: 385-386. In some cases, cell cycle and apoptosis analysis was measured using propidium iodide staining and flow cytometry as described. […] For cell analysis, DNA histograms were analyzed using MultiCycle for Windows (Phoenix Flow Systems, San Diego, Calif.) as described in Denning, M. F. et al., 1998, J Biol Chem 273: 29995-30002.

[2] = tested on: NOXA; test: Western blot of NOXA after proteasome inhibitors in melanoma cells; settings: RJ002L, C8161, MUM2B; 1 μM or 10 μM; 18 hrs
Source text: (§2) A panel of melanoma cells were used to assess the effect of bortezomib on pro-apoptotic proteins. RJ002L, C8161, MUM2B and SK-MeI-28 melanoma cells, as well as two normal melanocyte cultures (MC-010 and MC-012) were examined. Prior to testing, the RJ002L melanoma cell lines were maintained in RPMI supplemented with 10% FBS. Late passage melanoma cell lines (C8161, MUM2B and SK-Me1028) were utilized as previously described (Welch D et al., 1991, Int J Cancer 47:227-237; Bittner M et al., 2000, Nature 406:536-540). Normal human melanocytes were isolated from neonatal foreskins and cultured as previously described (Qin J et al., 2004, Mol Cancer Ther 3:895-902). Proliferating cells were examined by Western blot analysis before and after 18 hrs of exposure to bortezomib (1 μM). Antibodies were obtained as follows: Bad (SC-8044), Bcl-2 (SC-7382), Bcl-xL (SC-634), Mcl-1 (SC-819), Bak (SC-832) from Santa Cruz Biotechnology (Santa Cruz, Calif.); NOXA (OP180) from Calbiochem; Bid, Bim and PUMA from Cell Signaling (Beverly, Mass.); BAX from Upstate (Charlottesville, Va.); and β-actin from ICN (Irvine, Calif.). For the Western blot analysis, whole cell extracts were prepared as previously described (Denning M et al., 1998, J Biol Chem 273:29995-30002). Briefly, cells were harvested by scraping monolayers and washed with PBS. Cell pellets were resuspended in CHAPS buffers containing a protease inhibitor cocktail. Extracts were vigorously shaken at 4° C. for 15 min followed by centrifugation. Supernatants were collected and protein concentration determined using Bio-Rad reagent. Thirty to 50 microgram protein samples were resolved by SDS-polyacrylamide gel electrophoresis and transferred to polyvinylidene difluoride membrane by electroblotting. Membranes were probed with the various primary antibodies overnight at 4° C., followed by detection using ECL reagents (Amersham Pharmacia Biotech, Piscataway, N.J.) according to manufacturer's instructions.
(§3) Two other proteasome inhibitors, lactasytsin and MG-132, were tested for the ability to induce NOXA in melanoma cells and melanocytes. […]

[3] = tested on: melanoma cell lines; test: Proteasome inhibitors, apoptosis of melanoma cell lines (Annexin V FITC flow cytometry); settings: RJ002L, MG012, C8161, MUM2B, SK-MeI-28; 1-10 μM; 24 hrs
Protocol: as §1
To assess the effect of proteasome inhibitors on the cell lines, the cells were grown in suitable culture media as described above. Highly proliferating cells (i.e., cells that had reached approximately 30% confluency) were exposed to the inhibitors as described below. The culture media was replenished with media containing proteasome inhibitors at various concentrations and the cells were incubated for 24 hours prior to harvesting the cells for further analysis.
Following treatment with the proteasome inhibitors, the melanoma and melanocyte cell cultures were assayed for apoptotic cells using the APO TARGET Annexin V FITC staining kit (Biosource, Camarillo, Calif.) according to the manufacturer's instructions followed by flow cytometric analysis using FACScaliber (Becton Dickinson, Palo Alto, Calif.) as described in Qin, J. et al., 2001, Nat Med 7: 385-386. In some cases, cell cycle and apoptosis analysis was measured using propidium iodide staining and flow cytometry as described. Cells with DNA content less than the G0 amount of untreated cells were considered apoptotic. For cell analysis, DNA histograms were analyzed using MultiCycle for Windows (Phoenix Flow Systems, San Diego, Calif.) as described in Denning, M. F. et al., 1998, J Biol Chem 273: 29995-30002.

[4] = tested on: NOXA; test: Western blot of NOXA after proteasome inhibitors in normal melanocytes; settings: MC-004, MC-005, MC-006, MC-008; 1 μM or 10 μM; 18 hrs
Source text: as §2, §3

[5] = tested on: Notch-1; test: Notch Western blot in MDA-MB231 cells; settings: MDA-MB231; 25 μM; 48 hours
Protocol: Notch silencing was confirmed by Western blot using commercial goat polyclonal antibodies from Santa Cruz Biotechnology to Notch-1 (C-20, Cat# sc-6014 S) and Notch-4 (C-19, Cat# sc-8644). Total cell lysates were prepared as follows: cells grown on 6 cm dishes were scraped in lysis buffer containing 1×PBS, 1% Nonidet P40, 0.5% deoxycholate, 0.1% SDS, freshly added aprotinin (45 μg/ml), phenylmethylsulfonyl fluoride (10 μg/ml), and sodium orthovanadate (10 μM). Lysates were sonicated 4 times for 5 seconds each, followed by 30 minutes incubation on ice. Lysates were centrifuged at 10,000 g for 20 minutes at 4° C. Supernatants were used as total cell lysates. Nuclear extracts were prepared as follows: 10,000,000 cells were pelleted, washed, and quickly frozen in a dry ice bath. Pellets were thawed by adding 100 μl of buffer 1 (10 mM HEPES, pH 7.9, 10 mM KCl, 1.5 mM MgCl2, 1 mM DTT). Nuclei were pelleted and lysed in 15 μl Buffer 2 (20 mM HEPES, pH7.9, 0.4 M NaCl, 1.5 mM MgCl2, 25% glycerol, 0.2 mM EDTA, 1 mM DTT, and 0.5 mM PMSF). Lysates were diluted in 50-70 μl Buffer 3 (20 mM HEPES, pH 7.9, 50 mM KCl, 20% glycerol, 0.2 mM EDTA, 1 mM DTT, 0.5 mM PMSF). Protein concentrations were estimated using the BCA protein assay (Pierce). Supernatants were boiled in reducing SDS sample buffer (Novex). Twenty μg protein per lane were run on a 3-8% Tris acetate gel (Invitrogen) in Tris Acetate Reducing Running Buffer (Novex). Protein bands were transferred onto PVDF membranes (BioRad) using transfer buffer (Novex). Membranes were then blocked overnight at 4° C. in 2% blocking solution in TBS (Roche). Primary antibodies were diluted in 2% Boehringer blocking solution (total volume 5 ml). Membranes were incubated for one hour at room temperature with shaking, then washed 6 times for 10 minutes each in TBS wash buffer. Membranes were incubated in secondary antibody in 2% of blocking solution for 30 minutes, then washed 6 times for 10 minutes each at RT in wash buffer. Bands were detected with chemiluminescent reagent (Roche) according to the manufacturer's directions. […]

[6] = tested on: MDA-MB231 breast cancer cells; test: Extracellular matrix invasion of MDA-MB231 cells (Matrigel Invasion Chambers); settings: 25 μM, 22 h
Protocol: (§4) Cytotoxicity and growth of transfected cells were estimated by a standard assay used for cancer drug screening, through the total amount of TCA-precipitated cell proteins after drug treatment (Likhitwitayawuid, K et al., 1993, J Nat Prod 56:30-38): 200 μl of cell suspension (10^5 cells/ml) were added to each well in a 96-well plate. After incubation at, 37° C., in 5% CO2 (30 minutes to 72 hours depending on the time course chosen), 50 μl 50% trichloroacetic acid was added to each well. After incubation at 4° C. for 1 hour, precipitates were washed with water 4-5 times and air dried overnight. One hundred μl of SRB solution (0.4% sulforhodamine B in 1% acetic acid, filtered before use) was added to each well for 30 minutes. Wells were washed with 1% acetic acid 4-5 times and air dried. Two hundred μl 10 mM Tris base was added to each well. Plates were shaken for 5-10 minutes and OD at 490 nm (OD490) was recorded via ELISA reader. To assay matrix invasion, 300 μl of cell suspension (10^6 cells/mL in serum-free medium) were added to invasion inserts (BioCoat Matrigel Invasion Chambers, Becton Dickinson, Bedford, Mass.) and incubated for 22 hours at 37° C., 5% CO2. Cells were stained with 0.9% crystal violet in 10% ethanol for 20 minutes. Inserts were dipped in water several times and air dried. After removal of the non-invading cells from the interior of the inserts, stained invading cells were lysed in 10% acetic acid and OD595 was determined.
Notch silencing was confirmed by Western blot as described above in Example 15 using commercial goat polyclonal antibodies from Santa Cruz Biotechnology to Notch-1 (C-20, Cat# sc-6014 S). For the Western blot analyses, MDA-MB231 cells were treated with 25 μM IL-X for 48 h or with 0.5, 1 or 2 μM z-Leu-Leu-Nle-CHO for 24 h. Cytotoxicity and matrix invasion assays were performed as described above in Example 15. For the cytotoxicity assays, MDA-MB231 cells were treated with […] IL-X for up to 3 days or with 0-20 μM z-Leu-Leu-Nle-CHO for up to 4 days. […]

[7] = tested on: MDA-MB231 breast cancer cells; test: Cytotoxicity and growth assay in MDA-MB231 breast cancer cells (SRB, TCA-precipitated protein); settings: MDA-MB231; up to 3 days
Protocol: An invasive, estrogen-independent breast cancer cell line that spontaneously expresses high levels of Notch-1 and -4, MDA-MB231, and normal human breast cells were used to investigate whether inhibition of Notch activation or expression affects the biological behavior of breast cancer cells. Human Mammary Epithelial Cells (HMEC) were purchased from Clonetics and cultured in mammary epithelial cell basal medium (MEBM) supplemented with 52 μg/ml Bovine Pituitary Extract […], […] human recombinant Epidermal Growth Factor (hEGF), 5 μg/ml insulin, 0.5 μg/ml Hydrocortisone, 50 μg/ml Gentamicin and 50 μg/ml Amphotericin-B. MDA-MB231 (ATCC, Rockville, Md.) were cultured in DMEM medium with 10% FBS. Notch expression in HMEC and MDA-MB231 cells was silenced using highly specific RNAi. Double-stranded synthetic 21-mer RNA oligonucleotides (siRNAs) were purchased from Dharmacon (Lafayette, Colo.). […] Sequence specificity was determined by BLAST searches which determined the uniqueness of the sequences. Transfection of siRNAs was performed using Oligofectamine (Invitrogen) as recommended by the siRNA manufacturer (Dharmacon). Transfection efficiency was optimized and followed on parallel wells using DNA double stranded oligos of identical sequence to the siRNAs, labeled with biotin on one strand. Transfected cells were identified by Streptavidin-horseradish peroxidase staining (Vectastain) and counted. Transfection efficiencies around 80% were routinely obtained.
as §4, with “Cells were stained with 0.9% crystal violet in 10% ethanol for 20 minutes. Inserts were dipped in water several times and air dried.” left out, “determined. […]” for “determined.”

| SMILES | cells undergoing apoptosis [1] | NOXA induction [2] | apoptotic response to increasing concentrations [3] | NOXA induction [4] | molecular forms of Notch-1 [5] | in vitro matrix invasion [6] | concentration above which cytotoxic [7] |
| --- | --- | --- | --- | --- | --- | --- | --- |
| CC(=O)N[C@@H](CSC(=O)[C@]1([C@@H](O)C(C)C)NC(=O)[C@H](C)[C@@H]1O)C(=O)O [lactacystin] | no more than 10% | induced high NOXA levels | significantly enhanced apoptotic responses | no induction of NOXA in any of the normal melanocytes | – | – | – |
| CCC(C)C(NC(=O)OCc1ccccc1)C(=O)NC(C=O)CC(C)C (stereo not drawn) [IL-X, cbz-IL-CHO] (Cbz-Ile-Leu-aldehyde; configuration not given here) | – | – | – | – | apparent reduction in all molecular forms of Notch-1 | significantly reduced in vitro matrix invasion | above 100 μM |
